pIC50: −log10 of the molar value.

One assay deals with MGC-803. Nature of the assay: Antiproliferative activity against human MGC803 cells after 72 hrs by CCK-8 assay. Format: functional, cell-based. As to conditions: MGC-803, 72 h.
A further assay deals with MCF7. Nature of the assay: Antiproliferative activity against human MCF7 cells after 72 hrs by CCK-8 assay. Format: functional, cell-based. The note with it: MCF7, 72 h.
Another assay deals with A549. Description: Antiproliferative activity against human A549 cells after 72 hrs by CCK-8 assay. It counts as functional, cell-based. The note with it: A549, 72 h.
The subject of the next assay is HCT-116. Nature of the assay: Antiproliferative activity against human HCT116 cells after 72 hrs by CCK-8 assay. It counts as functional, cell-based. The note with it: HCT-116, 72 h.
The nature of assay [1]: Inhibition of pig brain tubulin polymerization by spectrophotometric analysis. Further details: species or system Sus scrofa.
In another assay the test system is HepG2. Nature of the assay: Antiproliferative activity against human HepG2 cells after 72 hrs by CCK-8 assay. It counts as functional, cell-based. The note with it: HepG2, 72 h.
The subject of a further assay is HeLa. Nature of the assay: Antiproliferative activity against human HeLa cells after 72 hrs by CCK-8 assay. Format: functional, cell-based.

Consider `CCOc1ccc(-c2oc3cc(OC)ccc3c2C(=O)c2cc(OC)c(OC)c(OC)c2)cc1`, for which the negative logarithm of the IC50 (pIC50) was 5.00 in the assay on MGC-803; 6.04 in the assay with MCF7; 5.86 with A549; 4.90 in the assay with HCT-116; 6.07 in assay [1]; 5.88 with HepG2. In the assay with HeLa, this molecule had a pIC50 of 5.05.
As to `COc1ccc(/C=C\c2cc(OC)c(OC)c(OC)c2)cc1OP(=O)(O)O` [FOSBRETABULIN DISODIUM], the pIC50 is 6.33 with MGC-803; 6.02 in the assay on MCF7; 6.40 in the assay with A549; 6.62 in the assay on HCT-116; 5.32 in assay [1]; 6.57 with HepG2. Besides, the pIC50 with HeLa is 6.25.
Consider `COc1ccc(-c2oc3cc(OC)c(F)cc3c2C(=O)c2cc(OC)c(OC)c(OC)c2)cc1`, for which the pIC50 with MGC-803 was 4.33; with MCF7 it was 5.19; in the assay on A549, 5.16; in the assay on HCT-116 it was 4.11; in assay [1], below 3.70; with HepG2 it was 5.32. This molecule also gave a pIC50 in the assay on HeLa of 4.72.
In turn, `CCOc1ccc(-c2[nH]c3cc(OC)ccc3c2C(=O)c2cc(OC)c(OC)c(OC)c2)cc1` showed a negative logarithm of the IC50 (pIC50) in assay [1] below 3.70.
For the molecule `COc1ccc(/C=C\c2cc(OC)c(OC)c(OC)c2)cc1O` [COMBRETASTATIN A4], the negative logarithm of the IC50 (pIC50) with MGC-803 was 5.75; in the assay on MCF7, 6.17; with A549 it was 5.22; with HCT-116 it was 5.05; in assay [1], 6.06; in the assay with HepG2, 4.79. The negative logarithm of the IC50 (pIC50) with HeLa was 4.95.

These data come from ChEMBL document CHEMBL4257456, “Molecular modeling study, synthesis and biological evaluation of combretastatin A-4 analogues as anticancer agents and tubulin inhibitors” (Medchemcomm, 2018).
